Experiments:
main artery = test: Analysis for fatty streak in the main artery of rabbits; type: in vivo, rabbit (New Zealand White); details: for macrophage-lipid complex on the arterial endothelium: FIGS. 1A-1E, control: a thick layer; for Fatty streak: proportion of total arterial area, Oil Red O, rabbits, 8 weeks, Control 80 ± 8
Protocol: Cinnamic acid derivatives were purchased from Sigma Chemical Co. (St. Louis, Mo.). The rabbits were fed for 8 weeks while being allowed free access to the diets and water. The chest of each of the rabbits sacrificed in Step 2 was incised. […] The main artery was incised in the middle along the longitudinal axis and pinned to a dish. The moist artery was photographed and, then, the staining of fatty streaks was carried out in accordance with the method of […]., et al. (J. Lab. Clin. Med., 121, 103-110(1993)) as follows. A part of the incised main artery was washed three times with anhydrous propylene glycol for 2 min. and stained for 30 min. with a saturated solution of Oil Red O (ORO, Sigma Co.) dissolved in propylene glycol. Thereafter, the artery was washed twice with 85% propylene glycol for 3 min. to remove remaining staining solution and, then washed with physiological saline. The artery was photographed and the photograph was traced. The area of stained region (fatty streak region) was determined with an image analyzer (LEICA, Q-600, Germany) and its proportion (%) to the total arterial area was calculated.

ACAT = biological target: T1, ACAT (Rattus norvegicus, UniProt Q7TQM4); test: ACAT assay, liver microsomes of the fed rats; type: biochemical; details: liver microsomes of rats fed 0.1% in 1% cholesterol diet; Control 0
T1 construct: microsomes were separated from liver tissues to be used as an enzyme source; from tissue; host or cells: rat liver microsomes
T1 sequence (Q7TQM4 1-524): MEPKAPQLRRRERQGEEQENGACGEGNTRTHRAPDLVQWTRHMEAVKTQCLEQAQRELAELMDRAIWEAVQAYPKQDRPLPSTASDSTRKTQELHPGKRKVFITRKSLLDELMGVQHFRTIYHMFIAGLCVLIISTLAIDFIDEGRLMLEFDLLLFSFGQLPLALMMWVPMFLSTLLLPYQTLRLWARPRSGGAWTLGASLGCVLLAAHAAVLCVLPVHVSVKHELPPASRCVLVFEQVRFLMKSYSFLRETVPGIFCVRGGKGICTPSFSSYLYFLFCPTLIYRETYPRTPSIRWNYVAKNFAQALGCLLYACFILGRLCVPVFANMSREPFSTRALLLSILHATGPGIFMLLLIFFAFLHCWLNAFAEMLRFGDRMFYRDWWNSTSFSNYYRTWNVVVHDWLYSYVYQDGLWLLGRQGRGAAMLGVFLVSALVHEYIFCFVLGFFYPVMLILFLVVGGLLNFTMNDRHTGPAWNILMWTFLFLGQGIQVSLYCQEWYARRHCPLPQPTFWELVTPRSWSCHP
Protocol: To determine the effect of feeding cinnamic acid derivatives to rats on the activity of ACAT, microsomes were separated from liver tissues to be used as an enzyme source.
1 g each of the livers taken from each group of rats of Example 2 was homogenized in 5 ml of homogenization medium (0.1 M KH2 PO4, pH 7.4, 0.1 mM EDTA and 10 mM β-mercaptoethanol). The homogenate was centrifuged at 3,000×g for 15 min. at 4° C. and the supernatant thus obtained was centrifuged at 15,000×g for 15 min. at 4° C. to obtain a supernatant. The supernatant was put into an ultracentrifuge tube (Beckman) and centrifuged at 100,000×g for 1 hour at 4° C. to obtain microsomal pellets, which were then suspended in 3 ml of the homogenization medium and centrifuged at 100,000×g for 1 hour at 4° C. The pellets thus obtained were suspended in 1 ml of the homogenization medium. The protein concentration of the resulting suspension was determined by Lowry's method and then adjusted to 4 to 8 mg/ml. The resulting suspension was stored in a deep freezer (Biofreezer, Forma Scientific Inc.).
6.67 μl of 1 mg/ml cholesterol solution in acetone was mixed with 6 μl of 10% Triton WR-1339 (Sigma Co.) in acetone and, then, acetone was removed from the mixture by evaporation under a nitrogen flow. Distilled water was added to the resulting mixture to adjust the concentration of cholesterol to […].
Added to 10 μl of the resulting aqueous cholesterol solution were 10 μl of 1 M KH2 PO4 (pH 7.4), 5 μl of 0.6 mM bovine serum albumin (BSA), 10 μl of microsome solution obtained in (Step 1) and 55 μl of distilled water (total 90 μl). The mixture was pre-incubated in a water bath at 37° C. for 30 min. […]
200 μl of the resulting supernatant was put in a scintillation bottle and 4 ml of scintillation fluid (Lumac) was added thereto. The mixture was assayed for radioactivity with 1450 Microbeta liquid scintillation counter (Wallacoy, Finland). ACAT activity was calculated as picomoles of cholesteryl oleate synthesized per min. per mg protein (pmoles/min/mg protein).

SMILES	macrophage-lipid complex on the arterial endothelium (main artery)	Fatty streak (main artery)	Inhibition on ACAT activity (ACAT)
O=C(O)/C=C/c1ccc(O)cc1 [4-Hydroxycinnamic acid, 4-hydroxycinnamic acid]	no or very thin layers of macrophage-lipid complex	24 ± 11%	17%
O=C(O)/C=C/c1ccc(O)c(O)c1 [3,4-dihydroxycinnamic acid]	no or very thin layers of macrophage-lipid complex	13 ± 5%	7%
O=C(O)CCc1ccc(O)c(O)c1 [3,4-dihydroxyhydrocinnamic acid]	no or very thin layers of macrophage-lipid complex	16 ± 1%	20%

Reference: patent publication US6313171A, “Method for preventing or treating elevated blood lipid level-related diseases by administering cinnamic acid derivatives” (Korea Research Institute of Bioscience & Biotechnology, priority 1998, dated 2001)
